Reference: US20090131537A1, “Wound healing compositions” (priority 2007, published 2009)
Entries after “also recorded” stand apart in the source; their conditions may differ. Like-named read-outs stand apart in the source and are kept apart here. Each block holds one compound with its values, some of them ahead of it.

Experiments:
HaCat keratinocytes [1] = experiment: clonal growth assay of HaCat keratinocytes with growth factor/retinoid supplements; format: cell-based, human; details: for keratinocyte clonal growth: FIG. 1
Protocol: In the following experiment, the effect of on keratinocyte growth of adding single or multiple additives to standard medium (Std) was examined in a clonal growth assay performed according to the methods described previously (Wille et al., 1984). Briefly, a sterile […] plastic disposable Petri dish is seed with 5,000 high cloning HaCat cells, and refed complete (E^+I^+) serum free HECK 109 medium at incubated at 37° C. for 24 to 48 hours. The cells are washed with ice-cold Standard HECK 109 medium and refed various combinations of growth factors and retinyl acetate (RetAC).
FIG. 1 presents a photograph showing the results of incubating the HaCat seeded clonal assay dishes various supplements. The cells were fixed with 50% ethanol and stained with 0.2% crystal violet stain. This imparts a blue color to the cells. The stained dishes were then photographed.
In a second series of experiments the HaCat keratinocyte clonal growth after one day (D1) was compared for the combination: insulin plus retinyl acetate (Ins+Rac, D1) and the combination: EGF plus insulin (EI, D1). […] In these studies, insulin was also a necessary growth factor when used in combination with retinyl acetate. This may reflect the often-observed phenomenon of “carry-over” of bound EGF on cell surface growth factor receptor.

HaCat keratinocytes [2] = experiment: inhibition of retinoid-induced autocrine growth of HaCat keratinocytes by receptor tyrosine kinase inhibitor; format: cell-based, human; details: standard medium + 5 ug/ml insulin + 3×10^−8 M retinyl acetate, d1, FIG. 5
Protocol: In this experiment a selective inhibitor of receptor tyrosine protein phosphokinase was added to a culture of HaCat keratinocytes immediately prior to replacing the growth factor replete medium with HECK 110 serum free medium containing the combination insulin and retinyl acetate to induce autocrine growth. FIG. 5 presents a photograph showing three culture dishes with the following growth conditions: A. Standard growth medium (Std, d1); B. Standard growth medium containing the combination: 5 ug/ml insulin plus 3×10^−8M retinyl acetate (Ins+RAc, d1) and C. standard medium containing the combination: 5 ug/ml insulin, 3×10^−8M retinyl acetate and 2 uM of receptor tyrosine protein kinase inhibitor (Ins+Rac+RTKI, d1).

HaCat keratinocytes [3] = experiment: wound healing zone (WHZ) wound gap closure in confluent HaCat keratinocyte sheets; format: cell-based, human; details: for healing of WHZ: 24 hours, with insulin
Protocol: Keratinocytes were grown in a serum free medium supplemented with 5 ng/ml EGF and 5 ug/ml insulin and 0.2% fetal bovine serum and reseeded at 1×10^5 cells per cm^2 in to 35 mm 2 circular disposable Petri dishes and incubated at 37° C. until the cells completely filled the dish. These confluent cultures were then washed with ice-cold basal MCDB serum free medium and refed a serum free medium of the present invention whose composition is as shown in Table 1. A 2.5 mm linear wound was made across the midline of the diameter of the confluent culture with a 2.5 mm diameter heat-sealed tip of a 9 inch sterile Pasteur pipette. […] Wound of this diameter were routinely and reproducibly made by this technique and allow study of the effect of any agent that might have an effect on wound healing by measuring the delay in time it takes to fill in the wound gap of the WHZ.
FIG. 6 is a photograph of 9 culture dishes fixed with 50% ethanol and stained with 0.2% crystal violet 24 hours after forming the WHZ and incubated in the serum free medium of this invention containing varying doses of retinyl acetate. The experiment was performed in duplicate dishes. There is only one dish labeled 3E-5 as its duplicate was contaminated with mold and was eliminated. Control dishes were refed serum free medium supplemented with insulin but no retinyl acetate. All of the other dishes were r3efed serum free medium with insulin and increasing amount of retinyl acetate. The mi9d line WHZ was filled by epidermal keratinocyte migration and cell growth in all of the dishes except for cultures that had retinyl acetate at concentrations greater than 3×10^−6 M.
FIG. 7 show photomicrographs comparing wound closure in the WHZ for cultures of HaCat keratinocytes fixed and stained with crystal violet stain and photographed with bright field illumination.

[4] = tested on: adult human keratinocytes; details: cited from earlier work
[5] = tested on: normal human keratinocytes; details: added to serum free growth factor supplemented medium; cited from earlier work
c-neu = experiment: indirect immunofluorescence c-neu staining of keratinocytes propagated with retinoic acid; format: cell-based, human; details: 5×10^−8 M all-trans retinoic acid
Source text: In order to determine whether retinoids like retinyl acetate induced autocrine secretion of an EGF-like protein growth factor that binds to an EGF-like cell surface receptor, we designed an experiment using the erbB antibody purchased from Oncogene Sciences (Manhasset, N.Y.) and performed indirect immunofluoresnce (IIF) cytochemistry on fixed normal human neonatal foreskin keratinocytes prepared according to previous studies (Wille et al., 1984). The technique of indirect immunofluorescene was performed according to the antibody manufacturers instructions for c-neu antibody. The neu oncogene was discovered after serial transformation of cells using rat neuroblastoma DNA. The isolated oncogene hybridizes with v-erbB and has 50% homology to the normal EGF receptor, a tyrosine kinase type enzyme protein. The proto-oncogene for neu is designated c-erb-2.
Normal human keratinocytes were propagated in a serum free medium composition containing 5×10.up.−8M all-trans retinoic acid, fixed and prepared for c-neu staining and detection by IIF as described in Experiment 1. […] We interpret this to mean that retinoid stimulation of autocrine growth proceeds through phosphorylation of an EGF-like receptor at points of cell-to-cell contact, which usually is only seen is post-mitotic suprabasal cells.

- HaCat growth, dish B versus dishes A and C (HaCat keratinocytes [2]): significant growth
Compound: CC(=O)OC/C=C(C)/C=C/C=C(C)/C=C/C1=C(C)CCCC1(C)C (racemic) [retinyl acetate]
- keratinocyte clonal growth after one day (D1) compared with EGF plus insulin (HaCat keratinocytes [1]; 5 ug/ml insulin + 3×10^−8 M retinyl acetate, D1, FIG. 2): stimulated keratinocyte growth as well as the combination (EI)
- keratinocyte clonal growth (HaCat keratinocytes [1]; standard medium (Std) + 3×10^−8 M retinyl acetate alone): little if any keratinocyte growth
- keratinocyte clonal growth (HaCat keratinocytes [1]; standard medium + 5 ug/ml insulin and 3×10^−8 M retinyl acetate): sufficient to support the growth; also recorded: the best result was stimulation of keratinocyte growth
- healing of WHZ (HaCat keratinocytes [3]; 3×10^−5 M retinyl acetate): incomplete healing; also recorded: no healing; also recorded: complete failure to fill in the WHZ gap
- healing of WHZ (HaCat keratinocytes [3]; 3×10^−6 M retinyl acetate): incomplete healing
- healing in the WHZ (HaCat keratinocytes [3]; 3×10^−7 M retinyl acetate): ~100%
- healing of WHZ (HaCat keratinocytes [3]; 3×10^−7 M retinyl acetate): complete wound healing
- healing of WHZ (HaCat keratinocytes [3]; 3×10^−8 M retinyl acetate): complete healing

Compound: CC1=C(/C=C/C(C)=C/C=C/C(C)=C/C(=O)O)C(C)(C)CCC1 [all-trans retinoic acid]
- effect on keratinocyte growth ([4]; concentrations lower than the optimal 0.5 ng/ml): ineffective
- effect on keratinocyte growth ([4]; growth factor deficient medium, growth arrested cells, 0.1-2.5 ng/ml): stimulated growth
- optimal concentration required to produce the growth stimulation ([4]; growth factor deficient medium): 0.5 ng/mL
- effect on keratinocyte proliferation ([4]; growth factor-supplemented medium, 0.1-2.5 ng/ml): inhibited proliferation
- rate of keratinocyte proliferation relative to maximal rate in growth factor supplemented medium ([4]; retinoid-stimulated cultures, growth factor deficient medium): approximately 35%
- effect on clonal growth [5]: inhibits the clonal growth
- c-neu staining pattern (c-neu; no alkaline phosphatase pre-treatment, FIG. 4A): virtually all of the positive staining was strictly localized to focal adherence areas
- c-neu phosphorylation (c-neu; with alkaline phosphatase pretreatment, FIG. 4B): induced a labile phosphorylation of c-neu only at the focal adherence sites

Compound: insulin: protein growth factor insulin, supplement of serum free medium
- keratinocyte clonal growth (HaCat keratinocytes [1]; standard medium + insulin 5 ug/ml only (Std+Ins)): less effective; also recorded: stimulated to grow
